Measured values as given in ChEMBL document CHEMBL1649094, “First Selective CYP11B1 Inhibitors for the Treatment of Cortisol-Dependent Diseases” (ACS Med Chem Lett, 2011).

Experiments:
[1] = biological target: T1, Steroid 17-alpha-hydroxylase/17,20 lyase (Homo sapiens, UniProt P05093); assay: (§1) Inhibition of human recombinant CYP17 expressed in Escherichia coli at 2 uM using progesterone substrate; conditions: 2 µM
T1 sequence (P05093 whole entry): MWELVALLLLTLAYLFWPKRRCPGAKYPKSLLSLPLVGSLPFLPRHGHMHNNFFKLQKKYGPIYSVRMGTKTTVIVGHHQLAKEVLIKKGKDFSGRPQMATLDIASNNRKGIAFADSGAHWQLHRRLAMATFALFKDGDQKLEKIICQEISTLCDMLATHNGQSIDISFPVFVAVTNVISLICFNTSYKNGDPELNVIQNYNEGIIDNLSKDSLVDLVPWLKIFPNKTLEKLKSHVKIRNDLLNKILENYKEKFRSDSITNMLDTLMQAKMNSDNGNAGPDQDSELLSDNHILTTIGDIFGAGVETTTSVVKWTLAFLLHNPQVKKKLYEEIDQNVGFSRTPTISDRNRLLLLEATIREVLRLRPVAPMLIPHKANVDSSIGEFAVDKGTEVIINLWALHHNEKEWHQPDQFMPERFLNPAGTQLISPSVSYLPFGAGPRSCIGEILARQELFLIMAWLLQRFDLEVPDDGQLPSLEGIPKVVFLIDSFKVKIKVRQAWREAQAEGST

[2] = biological target: T2, Cytochrome P450 11B1, mitochondrial (Homo sapiens, UniProt P15538); assay: Inhibition of human CYP11B1 expressed in hamster V79MZ cells using 11-deoxycorticosterone substrate; format: cell-based
T2 sequence (P15538 whole entry): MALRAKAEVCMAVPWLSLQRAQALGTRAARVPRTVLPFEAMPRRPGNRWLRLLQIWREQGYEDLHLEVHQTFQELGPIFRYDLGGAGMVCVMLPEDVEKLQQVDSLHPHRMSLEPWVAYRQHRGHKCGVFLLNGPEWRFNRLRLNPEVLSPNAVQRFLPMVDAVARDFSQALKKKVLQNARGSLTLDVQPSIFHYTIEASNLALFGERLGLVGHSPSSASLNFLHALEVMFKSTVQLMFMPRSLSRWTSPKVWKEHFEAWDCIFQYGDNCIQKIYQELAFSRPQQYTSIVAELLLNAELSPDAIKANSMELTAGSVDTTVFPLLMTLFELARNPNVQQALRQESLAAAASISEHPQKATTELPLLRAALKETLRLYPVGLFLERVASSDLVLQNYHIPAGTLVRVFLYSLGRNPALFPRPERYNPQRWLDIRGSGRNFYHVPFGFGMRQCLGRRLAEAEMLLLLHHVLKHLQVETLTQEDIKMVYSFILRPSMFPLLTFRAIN

CYP19 (aromatase) = biological target: T3, CYP19 (aromatase) (Homo sapiens, UniProt P11511); assay: (§2) Inhibition of human placental microsomes CYP19 at 500 nM using androstenedione substrate; conditions: human placental microsomes, probe androstenedione
T3 sequence (P11511 whole entry): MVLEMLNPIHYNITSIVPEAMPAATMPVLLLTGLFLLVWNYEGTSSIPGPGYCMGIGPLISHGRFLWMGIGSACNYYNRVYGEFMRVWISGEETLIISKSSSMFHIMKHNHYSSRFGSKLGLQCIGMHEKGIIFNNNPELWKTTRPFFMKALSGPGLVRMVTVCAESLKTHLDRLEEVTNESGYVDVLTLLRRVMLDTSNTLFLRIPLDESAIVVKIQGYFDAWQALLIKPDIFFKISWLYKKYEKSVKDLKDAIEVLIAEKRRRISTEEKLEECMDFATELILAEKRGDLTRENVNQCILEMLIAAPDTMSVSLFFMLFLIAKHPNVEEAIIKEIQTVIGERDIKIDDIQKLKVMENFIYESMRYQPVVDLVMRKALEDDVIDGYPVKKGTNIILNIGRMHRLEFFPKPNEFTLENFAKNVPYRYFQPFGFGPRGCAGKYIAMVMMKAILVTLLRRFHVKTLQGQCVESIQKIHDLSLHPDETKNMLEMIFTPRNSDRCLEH

[3] = biological target: T4, Cytochrome P450 11B2, mitochondrial (Homo sapiens, UniProt P19099); assay: Inhibition of human CYP11B2 expressed in hamster V79MZ cells using 11-deoxycorticosterone substrate; format: cell-based
T4 sequence (P19099 whole entry): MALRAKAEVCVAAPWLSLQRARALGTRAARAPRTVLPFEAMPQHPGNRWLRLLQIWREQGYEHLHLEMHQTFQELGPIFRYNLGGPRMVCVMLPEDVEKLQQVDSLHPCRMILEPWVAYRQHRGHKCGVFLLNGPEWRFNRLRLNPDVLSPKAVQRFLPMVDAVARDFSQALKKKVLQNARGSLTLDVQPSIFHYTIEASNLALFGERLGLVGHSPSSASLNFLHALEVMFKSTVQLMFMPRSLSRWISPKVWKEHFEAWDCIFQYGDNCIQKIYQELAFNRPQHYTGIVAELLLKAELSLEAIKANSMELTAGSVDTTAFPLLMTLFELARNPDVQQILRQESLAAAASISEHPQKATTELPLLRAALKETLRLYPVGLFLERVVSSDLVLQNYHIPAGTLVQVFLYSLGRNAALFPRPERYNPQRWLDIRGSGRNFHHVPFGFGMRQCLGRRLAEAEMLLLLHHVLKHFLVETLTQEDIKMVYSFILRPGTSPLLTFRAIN

Aromatase = biological target: T5, Aromatase (Homo sapiens, UniProt P11511); assay: as §2; conditions: 0.5 µM
T5 sequence (P11511 whole entry): T3 sequence (P11511 whole entry)

Homo sapiens = organism: Homo sapiens; assay: Selectivity index, ratio of IC50 for human CYP11B2 to IC50 for human CYP11B1
CYP17 = biological target: T6, CYP17 (Homo sapiens, UniProt P05093); assay: as §1; conditions: recombinant human CYP17 expressed in Escherichia coli, probe progesterone
T6 sequence (P05093 whole entry): T1 sequence (P05093 whole entry)

| Compound | inhibition (INH) [1] | IC50 [2] [nM] | inhibition at 0.5 µM (CYP19 (aromatase)) [%] | IC50 [3] [nM] | inhibition (INH) (Aromatase) | Ratio IC50 (Homo sapiens) | inhibition at 2 µM (CYP17) [%] |
| --- | --- | --- | --- | --- | --- | --- | --- |
| c1ccc2c(c1)ncn2CC12CC3CC(CC(C3)C1)C2 | Not Active | 75 | 12 |  |  |  |  |
| Cc1c(C)c(C)c(Cn2cnc3ccccc32)c(C)c1C | Not Active | > 1000 |  | > 1000 | Not Active |  |  |
| c1ccc(-c2ccc(Cn3ccnc3)cn2)cc1 |  |  | 0 |  |  | 18 |  |
| Cc1cc(C)c(Cn2cnc3ccccc32)c(C)c1 | Not Active | > 1000 |  | > 1000 | Not Active |  |  |
| c1ccc(-c2cc(Cn3ccnc3)cc(-c3ccccc3)c2)cc1 |  | 128 | 12 | 332 |  | 2.6 | 52 |
| Cc1cccc(Cn2cnc3ccccc32)c1 | Not Active | 194 |  | 309 | Not Active | 1.6 |  |
| c1ccc(-c2cc(Cn3cnc4ccccc43)cc(-c3ccccc3)c2)cc1 | Not Active | > 1000 |  | > 1000 | Not Active |  |  |
| Clc1ccc(Cn2ccnc2)cc1 | Not Active | 140 |  | 46 | Not Active | 0.3 |  |
| Cc1c(C)c(C)c(Cn2ccnc2)c(C)c1C | Not Active | 5 | 12 | 23 |  | 4.6 |  |
| Cc1cc(C)cc(Cn2cnc3ccccc32)c1 | Not Active | 188 |  | 632 | Not Active | 3.4 |  |
| c1ccc(-c2ccc(Cn3cnc4ccccc43)cc2)cc1 | Not Active | 197 |  | 1900 | Not Active | 10 |  |
| Cc1ccc(Cn2cnc3ccccc32)cc1 | Not Active | 500 |  | 520 | Not Active | 1 |  |
| CCOC(=O)c1cncn1[C@H](C)c1ccccc1 [ETOMIDATE] | Not Active |  |  | 0.1 | Not Active | 0.5 |  |
| c1ccc(-c2ccccc2Cn2ccnc2)cc1 | Not Active | 15 | 38 | 39 |  | 2.6 |  |
| c1ccc(C(Cn2ccnc2)(c2ccccc2)c2ccccc2)cc1 | Not Active | 4 | 38 | 8 |  | 2 |  |
| c1ccc(-c2cccc(Cn3cnc4ccccc43)c2)cc1 | Not Active | 369 |  | 2230 | Not Active | 6 |  |
| c1ccc(C(c2ccccc2)(c2ccccc2)n2ccnc2)cc1 | Not Active | 3 | 38 | 11 |  | 3.4 |  |
| c1ccc(-c2ccc(Cn3ccnc3)cc2)cc1 |  | 32 | 5 | 637 |  | 20 | 40 |

| Compound | inhibition (INH) [1] | IC50 [2] [nM] | inhibition at 0.5 µM (CYP19 (aromatase)) [%] | IC50 [3] [nM] | inhibition (INH) (Aromatase) | Ratio IC50 (Homo sapiens) | inhibition at 2 µM (CYP17) [%] |
| --- | --- | --- | --- | --- | --- | --- | --- |
| c1ccc(C(CCn2ccnc2)(c2ccccc2)c2ccccc2)cc1 | Not Active | 80 | 38 | 290 |  | 3.6 |  |
| c1ccc(Cn2ccnc2)cc1 | Not Active | 135 |  | 456 | Not Active | 3.4 |  |
| Cc1cc(C)c(Cn2ccnc2)c(C)c1 | Not Active | 24 |  | 30 | Not Active | 1.3 |  |
| c1cn(CC23CC4CC(CC(C4)C2)C3)cn1 |  | 5 | 12 | 30 |  | 5.9 |  |
| c1ccc(-c2ccccc2Cn2cnc3ccccc32)cc1 | Not Active | > 1000 |  | > 1000 | Not Active |  |  |
| c1ccc(C(CCn2cnc3ccccc32)(c2ccccc2)c2ccccc2)cc1 | Not Active | > 1000 |  | > 1000 | Not Active |  |  |
| c1ccc(C(Cn2cnc3ccccc32)(c2ccccc2)c2ccccc2)cc1 | Not Active | > 1000 |  | > 1000 | Not Active |  |  |
| c1ccc(C(c2ccccc2)(c2ccccc2)n2cnc3ccccc32)cc1 | Not Active | > 1000 |  | > 1000 | Not Active |  |  |
| c1ccc(-c2cccc(Cn3ccnc3)c2)cc1 | Not Active | 46 | 38 | 265 |  | 5.8 |  |
| Cc1ccccc1Cn1cnc2ccccc21 | Not Active | 779 |  | 262 | Not Active | 0.3 |  |
| Cc1cccc(Cn2ccnc2)c1 | Not Active | 48 | 12 | 110 |  | 2.3 |  |
| Cc1cc(C)cc(Cn2ccnc2)c1 | Not Active | 32 | 38 | 77 |  | 2.4 |  |
| c1ccc(-c2csc(Cn3ccnc3)c2)cc1 |  | 19 | 72 | 277 |  | 15 |  |
| Cc1ccccc1Cn1ccnc1 | Not Active | 61 | 12 | 62 |  | 1 |  |
| c1ccc(Cn2cnc3ccccc32)cc1 | Not Active | 246 |  | 865 | Not Active | 3.5 |  |
| Clc1ccc(Cn2cnc3ccccc32)cc1 | Not Active | 635 |  | 107 | Not Active | 0.2 |  |
| Cc1ccc(Cn2ccnc2)cc1 | Not Active | 258 |  | 320 | Not Active | 1.2 |  |
| CC(C)(C(=O)c1cccnc1)c1cccnc1 [METYRAPONE] | Not Active |  |  |  | Not Active |  |  |
